{"source": "patent US8076366B2", "about": "“Forms of bendamustine free base” (Cephalon, Inc., priority 2009, dated 2011)", "assay": "Variable temperature X-ray powder diffraction (VT-XRPD) of Form 3: solid-state thermal stability", "assay_type": "physicochemical", "procedure": "Variable temperature studies were performed with an Anton Paar TTK450 temperature chamber under computer control through an Anton Paar TCU100 temperature control unit. Typically, the measurements were done with a nitrogen flow through the camera. Two measurement schemes were used, restricted and continuous. In the restricted mode, measurements were made only after the TK450 chamber reached the requested temperature. In the continuous mode, the sample was heated at 10° C./minute and fast scans were measured as the temperature changed. After the pre-selected temperature was reached, the sample was cooled at 35° C./minute. To monitor for changes during the cooling, fast scans were again measured. At 25° C., a slow scan was measured. The temperatures chosen were based on DSC results. For the diffractometer set-up a 10 mm beam mask, 0.04 radian Soller slits and fixed (¼°) divergence and anti-scatter (⅛°) slits were inserted on the incident beam side. A fixed 0.10 mm receiving slit, 0.04 radian Soller slits and a 0.02 mm Nickel filter were inserted on the diffracted beam side. […] With the nitrogen gas supply turned off, the camera returned to ambient conditions. The humidity in the ambient state varies with the humidity in the laboratory, typically 30 to 40%, and with the temperature in the camera. As the temperature is raised, the relative humidity will drop. […]"}
{"smiles": "Cn1c(CCCC(=O)O)nc2cc(N(CCCl)CCCl)ccc21", "note": "[Form 3, 4-{5-[Bis(2-chloroethyl)amino]-1-methyl-2-benzimidazolyl}butyric acid]", "values": [{"measurement": "temperature after which the sample converts to amorphous material", "value": "> 133", "unit": "°C"}, {"measurement": "solid-solid transformations on heating", "setting": "temperature range of 25° C. to 50° C.", "value": "No significant, solid-solid transformations"}]}
